Source: ChEMBL document CHEMBL2074067, “TP-search Transporter Database” (J Physiol, 1994)

Molecular target: ATP-dependent translocase ABCB1 (Homo sapiens, UniProt P08183)
Assay: TP_TRANSPORTER: transepithelial transport (basal to apical) in Caco-2 cells
Assay type: functional, cell-based

Sequence of ATP-dependent translocase ABCB1 (P08183 whole entry): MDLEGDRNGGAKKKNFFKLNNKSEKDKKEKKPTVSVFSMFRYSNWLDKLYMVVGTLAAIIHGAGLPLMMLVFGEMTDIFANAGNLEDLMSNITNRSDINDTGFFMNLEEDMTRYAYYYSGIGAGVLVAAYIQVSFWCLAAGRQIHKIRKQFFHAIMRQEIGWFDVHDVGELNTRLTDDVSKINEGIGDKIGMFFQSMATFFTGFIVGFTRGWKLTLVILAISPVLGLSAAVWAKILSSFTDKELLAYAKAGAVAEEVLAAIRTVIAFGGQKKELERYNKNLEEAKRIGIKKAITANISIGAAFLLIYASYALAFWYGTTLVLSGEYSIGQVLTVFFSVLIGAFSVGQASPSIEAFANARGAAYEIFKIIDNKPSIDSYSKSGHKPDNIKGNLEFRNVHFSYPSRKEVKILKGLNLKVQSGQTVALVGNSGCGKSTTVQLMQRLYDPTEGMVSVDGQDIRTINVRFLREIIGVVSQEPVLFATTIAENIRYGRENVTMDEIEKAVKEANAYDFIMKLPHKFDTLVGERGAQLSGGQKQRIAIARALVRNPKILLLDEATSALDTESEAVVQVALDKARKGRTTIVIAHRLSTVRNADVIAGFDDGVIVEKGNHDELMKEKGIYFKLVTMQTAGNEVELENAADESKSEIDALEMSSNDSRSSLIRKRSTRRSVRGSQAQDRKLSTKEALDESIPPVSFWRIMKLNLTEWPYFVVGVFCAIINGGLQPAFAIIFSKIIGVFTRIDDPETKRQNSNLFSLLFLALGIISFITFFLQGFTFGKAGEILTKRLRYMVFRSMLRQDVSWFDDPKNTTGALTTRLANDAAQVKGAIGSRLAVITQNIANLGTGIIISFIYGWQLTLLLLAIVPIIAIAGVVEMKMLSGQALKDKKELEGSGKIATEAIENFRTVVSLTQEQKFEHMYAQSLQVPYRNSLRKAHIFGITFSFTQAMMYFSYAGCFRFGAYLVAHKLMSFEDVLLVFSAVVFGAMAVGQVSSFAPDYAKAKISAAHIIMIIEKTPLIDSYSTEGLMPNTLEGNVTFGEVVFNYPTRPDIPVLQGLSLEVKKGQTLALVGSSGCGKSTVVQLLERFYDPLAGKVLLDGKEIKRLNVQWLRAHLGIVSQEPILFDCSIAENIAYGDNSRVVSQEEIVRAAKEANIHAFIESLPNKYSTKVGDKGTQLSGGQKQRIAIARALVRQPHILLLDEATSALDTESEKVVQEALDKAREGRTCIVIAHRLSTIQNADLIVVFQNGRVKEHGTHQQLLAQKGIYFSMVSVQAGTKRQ

Activity: substrate [+]
SMILES: CNC(=C[N+](=O)[O-])NCCSCc1ccc(CN(C)C)o1 [RANITIDINE]
